Laboratory results published in ChEMBL document CHEMBL6153077, “Design, synthesis, and anti-liver fibrosis activity of novel non-steroidal vitamin D receptor agonists based on open-ring steroid scaffold” (Eur J Med Chem, 2025).
Values belong to the molecule of their own block, whether it stands above or below them. Active and inactive are the calls of the source. The rule behind the calls is not given here.

Columns and labels:
[1] = target: T1, Vitamin D3 receptor (Homo sapiens) (UniProt P11473); test: Binding affinity to full-length VDR (unknown origin) at 1 uM by fluorescence polarization assay relative to control
T1 sequence (whole entry): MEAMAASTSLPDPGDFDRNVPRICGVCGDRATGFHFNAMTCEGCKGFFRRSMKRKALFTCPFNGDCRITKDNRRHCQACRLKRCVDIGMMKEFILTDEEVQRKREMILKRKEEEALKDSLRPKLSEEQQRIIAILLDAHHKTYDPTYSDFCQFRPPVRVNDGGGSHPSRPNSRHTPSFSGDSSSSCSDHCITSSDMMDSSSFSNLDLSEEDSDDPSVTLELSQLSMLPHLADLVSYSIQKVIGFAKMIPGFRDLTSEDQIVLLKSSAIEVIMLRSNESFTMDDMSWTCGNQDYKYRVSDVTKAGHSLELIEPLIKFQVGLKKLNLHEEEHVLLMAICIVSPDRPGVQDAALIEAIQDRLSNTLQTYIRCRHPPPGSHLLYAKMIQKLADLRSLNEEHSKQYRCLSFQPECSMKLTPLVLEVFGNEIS

[2] = target: T1, Vitamin D3 receptor (Homo sapiens); test: Agonist activity at VDR in human LX2 cells assessed as increase in CYP24A1 level at 0.5 uM by qRT-PCR analysis; format: cell-based; details: filed as agonist
[3] = target: T1, Vitamin D3 receptor (Homo sapiens); test: Agonist activity at human VDR in HEK293 cells co-expressing 3-Luc/RXRalpha assessed as transcriptional activity at 0.5 uM by dual luciferase reporter assay; format: cell-based; details: filed as agonist
[4] = test system: LX-2; test: Inhibition of HSC activation in TGF-beta1-treated human LX2 cells assessed as decrease in ACTA2 mRNA level at 0.5 uM incubated for 24 hrs by qPCR analysis; format: functional, cell-based
[5] = test system: LX-2; test: Inhibition of HSC activation in TGF-beta1-treated human LX2 cells assessed as decrease in COL1A1 mRNA level at 0.5 uM incubated for 24 hrs by qPCR analysis; format: functional, cell-based
[6] = test system: LX-2; test: Inhibition of HSC activation in TGF-beta1-treated human LX2 cells assessed as decrease in alpha-SMA level at 0.5 uM incubated for 24 hrs by Western blot analysis; format: functional, cell-based
[7] = test system: LX-2; test: Inhibition of HSC activation in TGF-beta1-treated human LX2 cells assessed as decrease in collagen-I level at 0.5 uM incubated for 24 hrs by Western blot analysis; format: functional, cell-based
[8] = test system: LX-2; test: Inhibition of HSC activation in TGF-beta1-treated human LX2 cells harboring VDR siRNA assessed as decrease in alpha-SMA level at 0.5 uM incubated for 24 hrs by Western blot analysis; format: functional, cell-based
[9] = test system: LX-2; test: Inhibition of HSC activation in TGF-beta1-treated human LX2 cells harboring VDR siRNA assessed as decrease in collagen-I level at 0.5 uM incubated for 24 hrs by Western blot analysis; format: functional, cell-based
[10] = test system: Mus musculus; test: Anti-fibrotic activity in CCl4-induced hepatic fibrosis C57BL/6 mouse model assessed as decrease in Fn mRNA level in liver at 500 ug/kg, po administered daily for 2 weeks by qPCR analysis; format: functional, organism-based
[11] = test system: Mus musculus; test: Anti-fibrotic activity in CCl4-induced hepatic fibrosis C57BL/6 mouse model assessed as decrease in Ctgf mRNA level in liver at 500 ug/kg, po administered daily for 2 weeks by qPCR analysis; format: functional, organism-based
[12] = test system: Mus musculus; test: Anti-fibrotic activity in CCl4-induced hepatic fibrosis C57BL/6 mouse model assessed as decrease in Timp-1 mRNA level in liver at 500 ug/kg, po administered daily for 2 weeks by qPCR analysis; format: functional, organism-based
[13] = test system: Mus musculus; test: Anti-fibrotic activity in CCl4-induced hepatic fibrosis C57BL/6 mouse model assessed as reduction in hepatic lesion in liver at 500 ug/kg, po administered daily for 2 weeks by H and E/Masson's trichrome staining based analysis; format: functional, organism-based
[14] = test system: Mus musculus; test: Anti-fibrotic activity in CCl4-induced hepatic fibrosis C57BL/6 mouse model assessed as reduction in collagen deposition in liver at 500 ug/kg, po administered daily for 2 weeks by H and E/Masson's trichrome staining based analysis; format: functional, organism-based
[15] = test system: Mus musculus; test: Anti-fibrotic activity in CCl4-induced hepatic fibrosis C57BL/6 mouse model assessed as reduction in alpha-SMA level in liver at 500 ug/kg, po administered daily for 2 weeks by immunofluorescence based analysis; format: functional, organism-based
[16] = test system: Mus musculus; test: Anti-fibrotic activity in CCl4-induced hepatic fibrosis C57BL/6 mouse model assessed as reduction in IL-1beta level in liver at 500 ug/kg, po administered daily for 2 weeks by ELISA; format: functional, organism-based
[17] = test system: Mus musculus; test: Anti-fibrotic activity in CCl4-induced hepatic fibrosis C57BL/6 mouse model assessed as increase in IL-10 level in liver at 500 ug/kg, po administered daily for 2 weeks by ELISA; format: functional, organism-based
[18] = test system: Mus musculus; test: Anti-fibrotic activity in CCl4-induced hepatic fibrosis C57BL/6 mouse model assessed as reduction in AST level at 500 ug/kg, po administered daily for 2 weeks; format: functional, organism-based
[19] = test system: Mus musculus; test: Anti-fibrotic activity in CCl4-induced hepatic fibrosis C57BL/6 mouse model assessed as reduction in ALT level at 500 ug/kg, po administered daily for 2 weeks; format: functional, organism-based
[20] = test system: Mus musculus; test: Anti-fibrotic activity in CCl4-induced hepatic fibrosis C57BL/6 mouse model assessed as reduction in TBA level at 500 ug/kg, po administered daily for 2 weeks; format: functional, organism-based
[21] = test system: Mus musculus; test: Anti-fibrotic activity in CCl4-induced hepatic fibrosis C57BL/6 mouse model assessed as prevention of serum calcium level elevation at 500 ug/kg, po administered daily for 2 weeks; format: functional, organism-based

Activity ([1]; filed as agonist): 43%
Compound: CC(C)(O)CCCOc1ccc(/C=C/C2=C[C@@H](O)[C@@H](O)[C@H](O)C2)c2c1CCCC2

Activity [1]: inactive
Compound: CCC(O)(CC)CCCOc1ccc(C#CC2=C[C@@H](O)[C@@H](O)[C@H](O)C2)c2c1CCCC2

Activity ([1]; filed as agonist): 72%
Compound: CC(C)(O)COc1ccc(/C=C/C2=C[C@@H](O)[C@@H](O)[C@H](O)C2)c2c1CCCC2

Activity ([1]; filed as agonist): 76%
Compound: CC(C)c1ccc(C(=O)COc2ccc(/C=C/C3=C[C@@H](O)[C@@H](O)[C@H](O)C3)c3c2CCCC3)cc1

Activity [1]: 21%
Compound: CC(C)(O)CCCCOc1ccc(/C=C/C2=C[C@@H](O)[C@@H](O)[C@H](O)C2)c2c1CCCC2

Activity ([1]; filed as agonist): 71%
Compound: CC(C)(O)CCCn1ccc2c(/C=C/C3=C[C@@H](O)[C@@H](O)[C@H](O)C3)cccc21

Activity [1]: 77%
Compound: OC(COc1ccc(/C=C/C2=C[C@@H](O)[C@@H](O)[C@H](O)C2)c2c1CCCC2)c1ccccc1 (stereo partly specified)
inhibition [4]: inactive | inhibition [5]: inactive | inhibition [6]: inactive | inhibition [7]: inactive

Activity ([1]; filed as agonist): 50%
Compound: CC(C)(O)CCCCOc1ccc(C#CC2=C[C@@H](O)[C@@H](O)[C@H](O)C2)c2c1CCCC2

The remaining lines, values behind:

Compound: CCC(O)(CC)CCCOc1cccc2c1CCCC2OC(=O)C1=C[C@@H](O)[C@@H](O)[C@H](O)C1 (stereo partly specified)
Activity ([1]; filed as agonist): 68%

Compound: CC(C)(O)CCCCOc1cccc2c1CCCC2OC(=O)C1=C[C@@H](O)[C@@H](O)[C@H](O)C1 (stereo partly specified)
Activity ([1]; filed as agonist): 65%

Compound: CCC(O)(CC)c1ccc(-c2ccc(COC(=O)C3=C[C@@H](O)[C@@H](O)[C@H](O)C3)s2)c(C)c1
Activity ([1]; filed as agonist): 60% | Activity [2]: Active | Activity [3]: Active | inhibition [4]: Active | inhibition [5]: Active | inhibition [6]: Active | inhibition [7]: Active

Compound: OCc1ccc(/C=C/c2ccc(OCCCC(F)(F)F)cc2)cc1CO
Activity ([1]; filed as agonist): 51%

Compound: CCC(OC(=O)C1=C[C@@H](O)[C@@H](O)[C@H](O)C1)c1cccc(OCCCC(C)(C)O)c1 (stereo partly specified)
Activity ([1]; filed as agonist): 84% | inhibition [4]: Active | inhibition [5]: Active | inhibition [6]: Active | inhibition [7]: Active

Compound: C=C1/C(=C\C=C2/CCC[C@]3(C)[C@@H]([C@H](C)/C=C/[C@@H](O)C4CC4)CC[C@@H]23)C[C@@H](O)C[C@@H]1O
Activity ([1]; filed as agonist): 100% | inhibition [8]: inactive | inhibition [9]: inactive

Compound: O=C(OC1CCCc2c(OCCCN3CCOCC3)cccc21)C1=C[C@@H](O)[C@@H](O)[C@H](O)C1 (stereo partly specified)
Activity [1]: 50% | inhibition [4]: inactive | inhibition [5]: inactive | inhibition [6]: inactive | inhibition [7]: inactive

Compound: CCCCC(O)(CCCC)CCCOc1cccc2c1CCCC2OC(=O)C1=C[C@@H](O)[C@@H](O)[C@H](O)C1 (stereo partly specified)
Activity [1]: 34%

Compound: CC(C)(O)CCCOc1cccc(COC(=O)C2=C[C@@H](O)[C@@H](O)[C@H](O)C2)c1
Activity ([1]; filed as agonist): 49%

Compound: CCn1cc(C(CC)(CC)c2ccc(OCC(O)CO)c(C)c2)cc1C(=O)NCC(C)(C)O (stereo unspecified)
Activity ([1]; filed as agonist): 57% | inhibition [8]: inactive | inhibition [9]: inactive

Compound: CCC(OC(=O)C1=C[C@@H](O)[C@@H](O)[C@H](O)C1)c1cccc(OCCCC(O)(CC)CC)c1 (stereo partly specified)
Activity ([1]; filed as agonist): 84% | Activity [2]: Active | Activity [3]: Active | inhibition [4]: Active | inhibition [5]: Active | inhibition [6]: Active | inhibition [7]: Active | inhibition [8]: inactive | inhibition [9]: inactive | Activity [10]: Active | Activity [11]: Active | Activity [12]: Active | Activity [13]: Active | Activity [14]: Active | Activity [15]: Active | Activity [16]: Active | Activity [17]: Active | Activity [18]: Active | Activity [19]: Active | Activity [20]: Active | Activity [21]: Active

Compound: CCCC(O)(CCC)CCCOc1cccc2c1CCCC2OC(=O)C1=C[C@@H](O)[C@@H](O)[C@H](O)C1 (stereo partly specified)
Activity ([1]; filed as agonist): 77% | Activity [2]: Active | Activity [3]: Active | inhibition [4]: Active | inhibition [5]: Active
